According to article PMC9187613 (Bioorganic chemistry, 2022):
“Also recorded” adds a separate entry of the source. Like-named read-outs stand apart in the source and are kept apart here.

Legend:
[1] = test system: Zika virus (ATCC strain MR 766); experiment: ZIKV replication in Vero cells, virus titers by plaque assay; settings: for concentration at which replication was blocked completely: 48 h; for EC50: read-out: Antiviral EC50, MOI 1, 48 h, plaque assay
[2] = test system: Vero cells; experiment: Cytotoxicity assay; settings: for CC50: 48 h, LDH release
[3] = target: ZIKV NS2B-NS3 protease (Zika virus, UniProt A0A024B7W1); experiment: NS2B-NS3 protease activity assay; format: biochemical; settings: for inhibition of protease activity: single 200 μM concentration, 80% threshold
[4] = target: ZIKV NS5 RdRp (Zika virus, UniProt A0A024B7W1); experiment: NS5 RNA-dependent RNA-polymerase activity assay; format: biochemical; settings: for inhibition of the RdRp (in words): activity assays
[5] = test system: DENV2 NS2B-NS3 protease; settings: cited from earlier work
[6] = test system: papain-like protease (PL^pro); settings: cited from earlier work
[7] = read-out: NS3pro IC50, 4 nM enzyme, 30 μM Bz-nKRR-AMC, 37 °C

Sequence of ZIKV NS5 RdRp (A0A024B7W1 2826-3423): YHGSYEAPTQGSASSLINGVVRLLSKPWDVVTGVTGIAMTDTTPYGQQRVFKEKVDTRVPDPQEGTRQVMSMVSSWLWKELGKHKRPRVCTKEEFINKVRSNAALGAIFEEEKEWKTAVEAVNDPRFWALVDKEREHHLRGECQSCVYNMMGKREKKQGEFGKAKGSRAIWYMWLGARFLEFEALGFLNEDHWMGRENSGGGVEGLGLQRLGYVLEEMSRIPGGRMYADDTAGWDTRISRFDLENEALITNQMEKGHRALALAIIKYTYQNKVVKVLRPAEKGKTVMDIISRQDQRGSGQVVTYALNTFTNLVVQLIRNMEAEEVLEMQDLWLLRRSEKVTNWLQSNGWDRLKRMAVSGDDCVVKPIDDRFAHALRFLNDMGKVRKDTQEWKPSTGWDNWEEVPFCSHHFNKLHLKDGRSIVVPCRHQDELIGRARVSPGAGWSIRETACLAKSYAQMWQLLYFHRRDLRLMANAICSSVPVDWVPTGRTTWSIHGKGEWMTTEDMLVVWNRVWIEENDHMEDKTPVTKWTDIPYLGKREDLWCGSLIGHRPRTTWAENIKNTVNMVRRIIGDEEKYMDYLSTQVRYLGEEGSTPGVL
Sequence of ZIKV NS2B-NS3 protease (A0A024B7W1 1425-1464): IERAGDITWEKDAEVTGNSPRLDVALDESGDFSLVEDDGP
Sequence of ZIKV NS2B-NS3 protease (A0A024B7W1 1503-1680): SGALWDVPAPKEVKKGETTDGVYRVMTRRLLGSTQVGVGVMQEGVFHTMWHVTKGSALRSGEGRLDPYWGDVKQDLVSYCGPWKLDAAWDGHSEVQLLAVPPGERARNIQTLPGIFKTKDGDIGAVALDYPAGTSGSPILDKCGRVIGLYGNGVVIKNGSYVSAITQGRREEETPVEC

| Compound | concentration at which replication was blocked completely [1] [µM] | EC50 [1] [µM] | CC50 [2] [µM] | IC50 [3, 7] [µM] | inhibition of protease activity [3] [%] | inhibition of the RdRp (in words) [4] | mode of DENV2 NS2B-NS3 protease inhibition [5] | also measured |
| --- | --- | --- | --- | --- | --- | --- | --- | --- |
| COc1ccc(C(=O)/C=C/c2ccc(O)cc2)c(O)c1CC=C(C)C [4-HD, 4-hydroxyderricin] | 45 | 6.6 | 103 ± 14 | 47 ± 10 | > 80 | XA, but not 4HD or XA-E, inhibited | – | – |
| CC(C)=CC[C@@H]1C(C)=CC[C@@H](c2ccccc2)[C@@H]1C(=O)c1c(O)cc(O)cc1O [4-hydroxypanduratin A] | – | – | – | – | – | – | competitive inhibitory activity | – |
| CC(C)=CCC/C(C)=C/Cc1c(O)ccc(C(=O)/C=C/c2ccc(O)cc2)c1O [XA, Xanthoangelol] | – | – | – | – | – | – | – | anti-ZIKV activity (in words) ([1]; concentrations exceeding 50 μM): relatively weak anti-ZIKV activity; also recorded: only weak inhibition of ZIKV growth; cytotoxic effects (in words) [2]: did not display cytotoxic; IC50 [3]: 50 ± 5 µM; inhibition at 200 µM ([3]; read-out: inhibition of protease activity): > 80%; IC50 [4]: 6.9 ± 0.9 µM; inhibition of polymerase activity ([4]; 20 μM endpoint assay): 85% |
| C=C(C)C(Cc1c(OC)ccc(C(=O)/C=C/c2ccc(O)cc2)c1O)OO (centres unmarked) [XA-E, Xanthoangelol E] | 75 | 22 | 111 ± 10 | 18 ± 5 | > 80 | XA, but not 4HD or XA-E, inhibited | – | mode of protease inhibition ([3]; Michaelis-Menten and Lineweaver-Burk, consistent Km, decreasing Vmax): noncompetitive mode of inhibition; mode of SARS-CoV PL^pro inhibition [6]: non-competitive mode; IC50 ([6]; read-out: SARS-CoV PL^pro IC50): 1.2 µM |
| COc1cc(O)c(C(=O)[C@@H]2[C@H](CC=C(C)C)C(C)=CC[C@H]2c2ccccc2)c(O)c1 [panduratin A] | – | – | – | – | – | – | competitive inhibitory activity | – |
